Measured values published in ChEMBL document CHEMBL1201862, “PubChem BioAssay data set” (2004).
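Grown in 96-well plates, cells were treated for 48 hours with each compound at five concentrations. Insufficient inhibition: endpoint recorded as highest concentration tested. GI50 marks 50% less growth.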 Active and inactive are the calls of the source. Cut-off read from the data, not from the text of the source: active = GI50 up to about 1.1 µM and inactive = higher.

How the values were obtained:
Experiment in all cases: growth of human tumour cells (NCI), 48 h
HT-29 = tested on: HT-29
HCC 2998 = tested on: HCC 2998
NCI-H226 = tested on: NCI-H226
UO-31 = tested on: UO-31
786-0 = tested on: 786-0
ACHN = tested on: ACHN
IGROV-1 = tested on: IGROV-1
KM12 = tested on: KM12
OVCAR-8 = tested on: OVCAR-8
SF-268 = tested on: SF-268
SK-MEL-5 = tested on: SK-MEL-5
NCI-H460 = tested on: NCI-H460
Malme-3M = tested on: Malme-3M
NCI-H23 = tested on: NCI-H23
TK-10 = tested on: TK-10
HCT-15 = tested on: HCT-15
HOP-18 = tested on: HOP-18
KM-20L2 = tested on: KM-20L2
SW-620 = tested on: SW-620
DMS-273 = tested on: DMS-273
OVCAR-5 = tested on: OVCAR-5
HOP-92 = tested on: HOP-92
LOX IMVI = tested on: LOX IMVI
K562 = tested on: K562
HL-60 = tested on: HL-60
DMS-114 = tested on: DMS-114
RPMI-8226 = tested on: RPMI-8226
SNB-19 = tested on: SNB-19
OVCAR-3 = tested on: OVCAR-3
SK-OV-3 = tested on: SK-OV-3
NCI-H522 = tested on: NCI-H522
CCRF-CEM = tested on: CCRF-CEM
COLO 205 = tested on: COLO 205
SF-539 = tested on: SF-539
SR = tested on: SR
M14 = tested on: M14
UACC-257 = tested on: UACC-257
EKVX = tested on: EKVX
A549 = tested on: A549
SK-MEL-28 = tested on: SK-MEL-28
DLD-1 = tested on: DLD-1
HOP-62 = tested on: HOP-62
SF-295 = tested on: SF-295
UACC-62 = tested on: UACC-62
RXF 393 = tested on: RXF 393
SNB-78 = tested on: SNB-78
OVCAR-4 = tested on: OVCAR-4
SNB-75 = tested on: SNB-75
LXFL 529 = tested on: LXFL 529
M19-MEL = tested on: M19-MEL
SN12C = tested on: SN12C
MOLT-4 = tested on: MOLT-4
RXF 631 = tested on: RXF 631
HCT-116 = tested on: HCT-116
A498 = tested on: A498
U-251 = tested on: U-251
SK-MEL-2 = tested on: SK-MEL-2
XF498 = tested on: XF498
CAKI-1 = tested on: CAKI-1

## COc1ccc(-c2cc(-c3ccccc3)c(C#N)c(=O)[nH]2)cc1
HT-29
  GI50: > 100 µM (inactive)
HCC 2998
  GI50: > 100 µM (inactive)
NCI-H226
  GI50: > 100 µM (inactive)
UO-31
  GI50: > 100 µM (inactive)
786-0
  GI50: > 100 µM (inactive)
ACHN
  GI50: > 100 µM (inactive)
IGROV-1
  GI50: > 100 µM (inactive)
KM12
  GI50: > 100 µM (inactive)
OVCAR-8
  GI50: > 100 µM (inactive)
SF-268
  GI50: > 100 µM (inactive)
SK-MEL-5
  GI50: > 100 µM (inactive)
NCI-H460
  GI50: > 100 µM (inactive)
Malme-3M
  GI50: > 100 µM (inactive)
NCI-H23
  GI50: > 100 µM (inactive)
TK-10
  GI50: > 100 µM (inactive)
HCT-15
  GI50: > 100 µM
HOP-18
  GI50: > 100 µM (inactive)
KM-20L2
  GI50: > 100 µM (inactive)
SW-620
  GI50: > 100 µM (inactive)
DMS-273
  GI50: > 100 µM (inactive)
OVCAR-5
  GI50: > 100 µM (inactive)
HOP-92
  GI50: > 100 µM (inactive)
LOX IMVI
  GI50: > 100 µM (inactive)
K562
  GI50: > 100 µM (inactive)
HL-60
  GI50: > 100 µM (inactive)
DMS-114
  GI50: > 100 µM (inactive)
RPMI-8226
  GI50: > 100 µM (inactive)
SNB-19
  GI50: > 100 µM (inactive)
OVCAR-3
  GI50: > 100 µM (inactive)
SK-OV-3
  GI50: > 100 µM (inactive)
NCI-H522
  GI50: > 100 µM (inactive)
CCRF-CEM
  GI50: > 100 µM (inactive)
COLO 205
  GI50: > 100 µM (inactive)
SF-539
  GI50: > 100 µM (inactive)
SR
  GI50: > 100 µM (inactive)
M14
  GI50: > 100 µM (inactive)
UACC-257
  GI50: > 100 µM (inactive)
EKVX
  GI50: > 100 µM (inactive)
A549
  GI50: > 100 µM (inactive)
SK-MEL-28
  GI50: > 100 µM (inactive)
DLD-1
  GI50: > 100 µM (inactive)
HOP-62
  GI50: > 100 µM (inactive)
SF-295
  GI50: > 100 µM (inactive)
UACC-62
  GI50: > 100 µM (inactive)
RXF 393
  GI50: > 100 µM (inactive)
SNB-78
  GI50: > 100 µM (inactive)
OVCAR-4
  GI50: > 100 µM (inactive)
SNB-75
  GI50: 57.7 µM (inactive)
LXFL 529
  GI50: > 100 µM (inactive)
M19-MEL
  GI50: > 100 µM (inactive)
SN12C
  GI50: > 100 µM (inactive)
MOLT-4
  GI50: > 100 µM (inactive)
RXF 631
  GI50: > 100 µM (inactive)
HCT-116
  GI50: > 100 µM (inactive)
A498
  GI50: > 100 µM (inactive)
U-251
  GI50: > 100 µM (inactive)

## CCCc1onc(CCC(=O)N(Cc2ccccc2)Cc2ccccc2)c1CC
HT-29
  GI50: > 100 µM (inactive)
HCC 2998
  GI50: > 100 µM (inactive)
786-0
  GI50: > 100 µM (inactive)
ACHN
  GI50: > 100 µM (inactive)
IGROV-1
  GI50: > 100 µM (inactive)
KM12
  GI50: > 100 µM (inactive)
SF-268
  GI50: > 100 µM (inactive)
NCI-H460
  GI50: > 100 µM (inactive)
Malme-3M
  GI50: > 100 µM (inactive)
NCI-H23
  GI50: > 100 µM (inactive)
HCT-15
  GI50: > 100 µM
KM-20L2
  GI50: > 100 µM (inactive)
DMS-273
  GI50: > 100 µM (inactive)
OVCAR-5
  GI50: > 100 µM (inactive)
HOP-92
  GI50: 48.8 µM (inactive)
LOX IMVI
  GI50: > 100 µM (inactive)
K562
  GI50: > 100 µM (inactive)
HL-60
  GI50: > 100 µM (inactive)
DMS-114
  GI50: > 100 µM (inactive)
RPMI-8226
  GI50: > 100 µM (inactive)
OVCAR-3
  GI50: > 100 µM (inactive)
SK-OV-3
  GI50: > 100 µM (inactive)
SK-MEL-2
  GI50: > 100 µM (inactive)
NCI-H522
  GI50: > 100 µM (inactive)
CCRF-CEM
  GI50: > 100 µM (inactive)
COLO 205
  GI50: > 100 µM (inactive)
XF498
  GI50: > 100 µM (inactive)
M14
  GI50: > 100 µM (inactive)
UACC-257
  GI50: > 100 µM (inactive)
DLD-1
  GI50: > 100 µM (inactive)
HOP-62
  GI50: > 100 µM (inactive)
SF-295
  GI50: > 100 µM (inactive)
UACC-62
  GI50: > 100 µM (inactive)
SNB-78
  GI50: > 100 µM (inactive)
OVCAR-4
  GI50: > 100 µM (inactive)
CAKI-1
  GI50: > 100 µM (inactive)
LXFL 529
  GI50: > 100 µM (inactive)
M19-MEL
  GI50: > 100 µM (inactive)
SN12C
  GI50: > 100 µM (inactive)
MOLT-4
  GI50: > 100 µM (inactive)
RXF 631
  GI50: > 100 µM (inactive)
A498
  GI50: > 100 µM (inactive)
U-251
  GI50: > 100 µM (inactive)
